Measurements reported in US4593090A, “Novel nitrosourea compounds, method for preparing same, and pharmaceutical composition containing same” (Gogo Kimura, priority 1981, dated 1986).
Read-outs that look alike come from different tables or passages of the source.

Assays:
Ehrlich acites carcinoma = test: Growth-inhibiting effect against Ehrlich acites carcinoma; format: in vivo, male mice; settings: Mus musculus, Ehrlich, 120 h, 5 days; for response vs control in vivo at 50 mg/kg: 50 mg/kg/day ip; for response vs control in vivo at 200 mg/kg: 200 mg/kg/day ip; for response vs control in vivo at 25 mg/kg: 25 mg/kg/day ip; for response vs control in vivo at 100 mg/kg: 100 mg/kg/day ip
Method: Ehrlich acites carcinoma (1×10^7 cells) was implantated into the abdominal cavities of a 6-membered group of male mice. Test compounds (solutions or suspensions in 1% Nikohl HCO-60) were each intraperioneally administered once a day 5 successive days to the mice 24 hrs. after the implantation. Total packed cell volumes [TPCV, namely, total packed volumes of Acites carcinoma] were determined 7 days after the implantation to calculate growth ratio of tumor [T/C%; T: packed volume of Acites carcinoma in treated groups, C: packed volume of Acites carcinoma in an untreated group]. Acitivity is represented by - when T/C% is 100-66, by + when T/C% 65-41, by ++ when T/C% 40-11, and by +++ when T/C% 10-0.

Leukemia L1210 = test: Activity against Leukemia L1210, intraperitoneal, increase in life span of mice; format: in vivo, female mice (BDF1 family); settings: for ED (maximum ILS) / ED30: Mus musculus, L1210, ip, ip once a day for 5 successive days; for ED (maximum ILS): daily dosage giving maximum increase of life span, read-out: O.D. (optimum dosage); for ED30: daily dosage increasing average survival days by 30%, read-out: ILS30; for Survivors after 60 days / Max. ILS % / Therapeutic ratio TR: ip; for Survivors after 60 days: 6-membered group; for Max. ILS %: 60-day observation, versus control; for Therapeutic ratio TR: O.D./ILS30
How it was run: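 L1210 cells (1×10^5) into abdominal cavity of female BDF1 mice, 20–23 g, n=6/group. Dosing 24 h post-implant, ip or po, qd ×5. 60-day observation; ILS% = mean survival vs untreated control; T.R. = O.D./ILS 30.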

[1] = Acute toxicity (LD50, Behrens-Karber method); format: in vivo, ICR mice; settings: mouse, in vivo, ip, mortality during 30 days
Method: Test compounds, dissolved or suspended in 0.5% aqueous CMC, were each intraperitoneally administered to ICR mice in a dose of 0.1 ml per 10 g body weight. LD50 (mg/kg) value of each test compound was calculated from the mortality of mice during 30 days by the Behrens-Karber method.

Row | Structure (SMILES) | response vs control in vivo at 50 mg/kg (Ehrlich acites carcinoma; read-out: Activity) | response vs control in vivo at 50 mg/kg (Ehrlich acites carcinoma; read-out: T/C %) | response vs control in vivo at 200 mg/kg (Ehrlich acites carcinoma; read-out: Activity) | response vs control in vivo at 200 mg/kg (Ehrlich acites carcinoma; read-out: T/C %) | ED (maximum ILS) (Leukemia L1210) | ED30 (Leukemia L1210) | Survivors after 60 days (Leukemia L1210) | Max. ILS % (Leukemia L1210) | Therapeutic ratio TR (Leukemia L1210) | LD50 at 720 h [1] | response vs control in vivo at 25 mg/kg (Ehrlich acites carcinoma; read-out: Activity) | response vs control in vivo at 25 mg/kg (Ehrlich acites carcinoma; read-out: T/C %) | response vs control in vivo at 100 mg/kg (Ehrlich acites carcinoma; read-out: Activity) | response vs control in vivo at 100 mg/kg (Ehrlich acites carcinoma; read-out: T/C %)
1 | CCN(C[C@H]1O[C@H](OCC(C)C)[C@H](O)[C@@H](O)[C@H]1O)C(=O)N(CCCl)N=O [Compound 108, 3-ethyl-3-(isobutyl α-D-galactopyranose-6-yl)-1-(2-chloroethyl)-1-nitrosourea] | 0 to 10% | 7.8% | 0 to 10% | 0% | 130 mg/kg | 4.24 mg/kg | 3/6 | > 320% | 30.7 | 390 mg/kg | – | – | – | –
2 | CCCCO[C@H]1O[C@H](CN(CCOCCO)C(=O)N(CCCl)N=O)[C@@H](O)[C@H](O)[C@H]1O [Compound 12, 3-[2-(2-hydroxyethoxy)ethyl]-3-(n-butyl α-D-glucopyranose-6-yl)-1-(2-chloroethyl)-1-nitrosourea] | – | – | – | – | 170 mg/kg | 2.85 mg/kg | 6/6 | > 700% | 59.6 | 505 mg/kg | 0 to 10% | 0% | 0 to 10% | 0%
3 | CCCCOC1OC(CO)C(O)C(N(CCCOC)C(=O)N(CCCl)N=O)C1O [Compound 82, 3-(3-methoxy-n-propyl)-3-(n-butyl α-D-glucopyranose-3-yl)-1-(2-chloroethyl)-1-nitrosourea] | – | – | – | – | 200 mg/kg | 5.5 mg/kg | 3/6 | > 345% | 30.4 | 655 mg/kg | 0 to 10% | 0% | 0 to 10% | 0%
4 | COCC(C)N(C(=O)N(CCCl)N=O)[C@H]1[C@@H](OCC(C)C)O[C@H](CO)[C@H](O)[C@@H]1O (stereo partly drawn) [Compound 124, 3-(1-methyl-2-methoxyethyl)-3-(isobutyl α-D-galactopyranose-2-yl)-1-(2-chloroethyl)-1-nitrosourea] | – | – | – | – | 210 mg/kg | 5.3 mg/kg | 3/6 | > 360% | 39.6 | 745 mg/kg | 0 to 10% | 0% | 0 to 10% | 0%
5 | CCCCOC1OC(CO)C(O)C(O)C1N(CC1CCCO1)C(=O)N(CCCl)N=O [Compound 63, 3-tetrahydrofurfuryl-3-(n-butyl α-D-glucopyranose-2-yl)-1-(2-chloroethyl)-1-nitrosourea] | – | – | – | – | 190 mg/kg | 5.31 mg/kg | 3/6 | > 350% | 35.8 | 595 mg/kg | 0 to 10% | 0% | 0 to 10% | 0%
6 | CC(C)(C)N(C[C@H]1O[C@H](OCC2CCCO2)[C@H](O)[C@@H](O)[C@@H]1O)C(=O)N(CCCl)N=O (stereo partly drawn) [Compound 193, 3-tert-butyl-3-(tetrahydrofurfuryl α-D-glucopyranose-6-yl)-1-(2-chloroethyl)-1-nitrosourea] | – | – | – | – | 160 mg/kg | 2.52 mg/kg | 6/6 | > 700% | 63.4 | 550 mg/kg | 0 to 10% | 0% | 0 to 10% | 0%
7 | CCC(C)N(C[C@H]1O[C@H](OCCOCOC)[C@H](O)[C@@H](O)[C@H]1O)C(=O)N(CCCl)N=O (stereo partly shown) [Compound 115] | – | – | – | – | 200 mg/kg | 3.2 mg/kg | 6/6 | > 700% | 62.5 | 600 mg/kg | 0 to 10% | 0% | 0 to 10% | 0%
8 | COCCCO[C@H]1O[C@H](CN(CC(C)C)C(=O)N(CCCl)N=O)[C@@H](O)[C@H](O)[C@H]1O [Compound 31] | – | – | – | – | 170 mg/kg | 2.65 mg/kg | 6/6 | > 700% | 64.2 | 505 mg/kg | 0 to 10% | 0% | 0 to 10% | 0%
9 | CCOCCN(C[C@H]1O[C@H](OCC(C)C)[C@H](O)[C@@H](O)[C@H]1O)C(=O)N(CCCl)N=O [Compound 109, 3-(2-ethoxyethyl)-3-(isobutyl α-D-galactopyranose-6-yl)-1-(2-chloroethyl)-1-nitrosourea] | – | – | – | – | 200 mg/kg | 3.74 mg/kg | 4/6 | > 430% | 53.5 | 655 mg/kg | 0 to 10% | 0% | 0 to 10% | 0%
10 | CCC(C)O[C@H]1O[C@H](CN(C(=O)N(CCCl)N=O)C(C)CO)[C@@H](O)[C@H](O)[C@H]1O (stereo partly drawn) [Compound 20, 3-(2-hydroxy-1-methylethyl)-3-(sec-butyl α-D-glucopyranose-6-yl)-1-(2-chloroethyl)-1-nitrosourea] | – | – | – | – | 170 mg/kg | 3.92 mg/kg | 4/6 | > 430% | 43.4 | 560 mg/kg | 0 to 10% | 0% | 0 to 10% | 0%
11 | CCCCO[C@H]1O[C@H](CN(C)C(=O)N(CCCl)N=O)[C@H](O)[C@H](O)[C@H]1O [Compound 105, 3-methyl-3-(n-butyl α-D-galactopyranose-6-yl)-1-(2-chloroethyl)-1-nitrosourea] | 0 to 10% | 5.7% | 0 to 10% | 0% | 130 mg/kg | 3.59 mg/kg | 3/6 | > 320% | 36.2 | 320 mg/kg | – | – | – | –
12 | CCOCCN(C[C@H]1O[C@H](OC2CCCCC2)[C@H](O)[C@@H](O)[C@@H]1O)C(=O)N(CCCl)N=O [Compound 40, 3-(2-ethoxyethyl)-3-(cyclohexyl α-D-glucopyranose-6-yl)-1-(2-chloroethyl)-1-nitrosourea] | – | – | – | – | 170 mg/kg | 2.66 mg/kg | 6/6 | > 700% | 63.9 | 545 mg/kg | 0 to 10% | 0% | 0 to 10% | 0%
13 | CC(C)(C)CN(C[C@H]1O[C@H](OCC2CCCO2)[C@H](O)[C@@H](O)[C@@H]1O)C(=O)N(CCCl)N=O (stereo partly drawn) [Compound 188, 3-neopentyl-3-(tetrahydrofurfuryl α-D-glucopyranose-6-yl)-1-(2-chloroethyl)-1-nitrosourea] | – | – | – | – | 170 mg/kg | 2.72 mg/kg | 6/6 | > 700% | 62.5 | 550 mg/kg | 0 to 10% | 0% | 0 to 10% | 0%
14 | CCCN(C(=O)N(CCCl)N=O)[C@@H]1[C@@H](O)[C@@H](OC2CCCCC2)OC[C@H]1O [Compound 147, 3-n-propyl-3-(cyclohexyl α-D-xylopyranose-3-yl)-1-(2-chloroethyl)-1-nitrosourea] | – | – | – | – | 150 mg/kg | 3.91 mg/kg | 3/6 | > 350% | 38.4 | 430 mg/kg | – | – | – | –
15 | CCCCN(C[C@@H]1O[C@@H](OCC2CC2)[C@@H](O)[C@H](O)[C@@H]1O)C(=O)N(CCCl)N=O [Compound 134, 3-n-butyl-3-(cyclopropylmethyl α-L-galactopyranose-6-yl)-1-(2-chloroethyl)-1-nitrosourea] | – | – | – | – | 150 mg/kg | 3.73 mg/kg | 3/6 | > 365% | 40.2 | 490 mg/kg | – | – | – | –
